Measured values: paper PMC9851200, “Multiparameter phenotypic screening for endogenous TFEB and TFE3 translocation identifies novel chemical series modulating lysosome function” (Autophagy, 2022)
Like-named read-outs stand apart in the source and are kept apart here.

Assays:
PRKD2 = target: T1, PRKD2 (Homo sapiens, UniProt Q9BZL6); conditions: cited from earlier work
T1 sequence (Q9BZL6 1-878): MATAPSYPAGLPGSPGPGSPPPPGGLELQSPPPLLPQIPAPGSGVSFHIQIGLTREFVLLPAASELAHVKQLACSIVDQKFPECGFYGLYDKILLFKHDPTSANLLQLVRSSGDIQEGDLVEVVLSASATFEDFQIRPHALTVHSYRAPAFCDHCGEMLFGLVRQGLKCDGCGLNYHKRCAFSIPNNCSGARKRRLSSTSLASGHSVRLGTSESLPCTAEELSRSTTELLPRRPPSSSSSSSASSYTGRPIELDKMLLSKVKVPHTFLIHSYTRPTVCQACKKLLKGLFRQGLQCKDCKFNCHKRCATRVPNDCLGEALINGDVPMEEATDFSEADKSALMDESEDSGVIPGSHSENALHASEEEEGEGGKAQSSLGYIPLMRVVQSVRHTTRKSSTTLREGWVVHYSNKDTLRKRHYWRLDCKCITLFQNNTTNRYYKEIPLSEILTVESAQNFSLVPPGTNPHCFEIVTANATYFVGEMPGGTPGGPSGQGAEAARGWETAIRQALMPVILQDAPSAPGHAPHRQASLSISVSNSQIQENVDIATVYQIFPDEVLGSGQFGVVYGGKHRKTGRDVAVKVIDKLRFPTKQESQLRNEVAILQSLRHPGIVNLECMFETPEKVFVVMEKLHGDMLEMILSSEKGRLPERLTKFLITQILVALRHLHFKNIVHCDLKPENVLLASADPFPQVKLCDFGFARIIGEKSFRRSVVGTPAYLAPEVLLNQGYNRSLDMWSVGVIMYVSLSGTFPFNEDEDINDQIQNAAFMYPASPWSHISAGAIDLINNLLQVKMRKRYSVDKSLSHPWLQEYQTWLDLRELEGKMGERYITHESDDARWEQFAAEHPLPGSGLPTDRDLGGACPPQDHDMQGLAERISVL

TGFBR1 = target: T2, TGFBR1 (Homo sapiens, UniProt P36897); conditions: cited from earlier work
T2 sequence (P36897 34-503): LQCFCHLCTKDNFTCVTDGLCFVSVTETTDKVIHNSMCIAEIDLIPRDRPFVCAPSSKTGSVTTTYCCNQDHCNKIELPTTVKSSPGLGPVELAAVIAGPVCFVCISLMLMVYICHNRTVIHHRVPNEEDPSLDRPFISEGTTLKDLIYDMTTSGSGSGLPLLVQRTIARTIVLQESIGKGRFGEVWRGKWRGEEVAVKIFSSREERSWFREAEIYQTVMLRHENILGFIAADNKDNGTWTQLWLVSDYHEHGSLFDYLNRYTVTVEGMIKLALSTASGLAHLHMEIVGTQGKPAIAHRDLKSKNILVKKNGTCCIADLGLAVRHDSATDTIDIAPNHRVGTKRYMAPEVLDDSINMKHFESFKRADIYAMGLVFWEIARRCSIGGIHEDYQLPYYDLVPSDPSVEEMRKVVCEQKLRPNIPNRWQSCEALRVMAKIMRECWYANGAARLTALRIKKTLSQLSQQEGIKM

CDC42BPB/MRCKB = CDC42BPB/MRCKB (Homo sapiens, UniProt Q9Y5S2); conditions: cited from earlier work
TGFBR2 = TGFBR2 (Homo sapiens, UniProt P37173); conditions: cited from earlier work
CSNK1E = CSNK1E (Homo sapiens, UniProt P49674); conditions: cited from earlier work
MAPK10/JNK3 = MAPK10/JNK3 (Homo sapiens, UniProt P53779); conditions: cited from earlier work
MAPK9/JNK2 = MAPK9/JNK2 (Homo sapiens, UniProt P45984); conditions: cited from earlier work
STK10/LOK = STK10/LOK (Homo sapiens, UniProt O94804); conditions: cited from earlier work
MINK1/MINK = MINK1/MINK (Homo sapiens, UniProt Q8N4C8); conditions: cited from earlier work
MTOR [1] = target: T3, MTOR (Homo sapiens, UniProt P42345); conditions: cited from earlier work
SH-SY5Y cells [2] = experiment: AK (adenylate kinase) release ToxiLight cytotoxicity assay; conditions: for AK: PKIS2 primary screening
Description: Total cell lysis with 5 µL 5% Triton-X 100 (Sigma-Aldrich, T8787) is used as a positive control for the assay and toxicity is expressed as a percentage of luminescence under DMSO conditions.

SH-SY5Y cells [3] = experiment: Nuclear count from microscopy images (cellular growth and toxicity); conditions: for Nuclear Count: PKIS2 primary screening
ALK5/TGFBR1 = conditions: cited from earlier work
TFEB or TFE3 = experiment: EC50 line in the head of Table S5 (cellular activity of the analogs, assay not given); type: cell-based; conditions: assay not named, unit printed only in the first two cells
Description: Figure S5. Activity of quinazoline analogs. […] Compounds were screen at 24-h treatment time up to 5 µM concentration. Data for each compound is represented on single graphs with their structures shown. n=1 for all above assays, mean±s.d. (B) Representative western blot of TFEB levels following treatment of compounds followed by fractionation into cytoplasmic (C) and nuclear (N) compartments. Successful fractionation represented by enrichment of GAPDH in the cytoplasmic fraction and LMNA (lamin A/C) in the nuclear compartment. (C) The levels of nuclear/cytoplasmic TFEB were quantified and presented as a ratio. A paired one-way ANOVA with a Holm-Šídák's multiple comparisons test was performed relative to DMSO for comparison between each compound treatments (n=3).

MTOR [4] = target: T3, MTOR; experiment: KINOMEscan MTOR; type: binding; conditions: NEW KINOMEscan
PKNB(M.tuberculosis) = PKNB(M.tuberculosis) (Mycobacterium tuberculosis, UniProt P9WI81); type: binding
Chain of PKNB(M.tuberculosis) (P9WI81 whole entry, looked up): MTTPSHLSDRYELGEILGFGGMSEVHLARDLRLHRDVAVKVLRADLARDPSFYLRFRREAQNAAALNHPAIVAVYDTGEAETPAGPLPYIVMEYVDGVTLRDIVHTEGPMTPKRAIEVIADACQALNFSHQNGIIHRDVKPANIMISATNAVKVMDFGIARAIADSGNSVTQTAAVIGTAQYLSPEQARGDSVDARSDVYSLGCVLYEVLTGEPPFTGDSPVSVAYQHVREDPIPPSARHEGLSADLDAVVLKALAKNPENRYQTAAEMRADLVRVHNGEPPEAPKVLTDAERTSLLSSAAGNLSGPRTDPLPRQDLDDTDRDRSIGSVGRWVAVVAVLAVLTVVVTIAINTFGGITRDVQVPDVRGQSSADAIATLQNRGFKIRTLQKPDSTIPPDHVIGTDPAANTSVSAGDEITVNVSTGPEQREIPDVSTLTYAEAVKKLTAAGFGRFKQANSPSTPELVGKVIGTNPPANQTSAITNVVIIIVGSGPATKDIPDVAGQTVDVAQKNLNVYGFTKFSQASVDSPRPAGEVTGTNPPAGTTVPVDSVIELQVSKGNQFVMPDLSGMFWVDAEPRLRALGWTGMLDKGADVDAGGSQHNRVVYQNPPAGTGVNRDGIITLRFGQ

Chain of TGFBR2 (P37173 23-567): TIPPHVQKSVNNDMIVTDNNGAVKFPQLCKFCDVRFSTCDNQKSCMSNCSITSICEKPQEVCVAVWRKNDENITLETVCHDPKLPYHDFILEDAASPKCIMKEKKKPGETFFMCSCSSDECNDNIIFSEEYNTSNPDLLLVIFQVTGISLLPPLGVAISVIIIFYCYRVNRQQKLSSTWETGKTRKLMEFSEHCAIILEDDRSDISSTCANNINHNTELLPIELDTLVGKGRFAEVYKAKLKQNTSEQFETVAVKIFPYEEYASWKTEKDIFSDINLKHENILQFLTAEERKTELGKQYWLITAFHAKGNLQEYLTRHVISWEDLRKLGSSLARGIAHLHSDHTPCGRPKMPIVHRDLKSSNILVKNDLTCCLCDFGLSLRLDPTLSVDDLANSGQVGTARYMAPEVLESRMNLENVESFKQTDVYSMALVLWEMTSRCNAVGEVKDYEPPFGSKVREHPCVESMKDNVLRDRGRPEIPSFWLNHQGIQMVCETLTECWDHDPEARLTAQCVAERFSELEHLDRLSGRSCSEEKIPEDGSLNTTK
Chain of MAPK10/JNK3 (P53779 whole entry): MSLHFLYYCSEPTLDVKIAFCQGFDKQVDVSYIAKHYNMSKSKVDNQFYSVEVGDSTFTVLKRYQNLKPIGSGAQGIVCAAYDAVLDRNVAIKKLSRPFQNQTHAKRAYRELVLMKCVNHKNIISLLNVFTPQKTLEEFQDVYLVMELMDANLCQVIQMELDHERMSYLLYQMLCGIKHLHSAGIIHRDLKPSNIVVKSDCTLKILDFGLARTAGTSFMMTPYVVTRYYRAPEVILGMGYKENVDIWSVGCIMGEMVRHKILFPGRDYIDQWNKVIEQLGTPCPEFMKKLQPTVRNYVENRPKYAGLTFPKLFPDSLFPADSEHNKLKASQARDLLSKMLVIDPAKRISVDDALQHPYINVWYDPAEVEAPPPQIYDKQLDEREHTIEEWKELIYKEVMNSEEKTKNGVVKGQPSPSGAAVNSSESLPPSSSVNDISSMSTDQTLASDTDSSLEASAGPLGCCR
Chain of MINK1/MINK (Q8N4C8 whole entry): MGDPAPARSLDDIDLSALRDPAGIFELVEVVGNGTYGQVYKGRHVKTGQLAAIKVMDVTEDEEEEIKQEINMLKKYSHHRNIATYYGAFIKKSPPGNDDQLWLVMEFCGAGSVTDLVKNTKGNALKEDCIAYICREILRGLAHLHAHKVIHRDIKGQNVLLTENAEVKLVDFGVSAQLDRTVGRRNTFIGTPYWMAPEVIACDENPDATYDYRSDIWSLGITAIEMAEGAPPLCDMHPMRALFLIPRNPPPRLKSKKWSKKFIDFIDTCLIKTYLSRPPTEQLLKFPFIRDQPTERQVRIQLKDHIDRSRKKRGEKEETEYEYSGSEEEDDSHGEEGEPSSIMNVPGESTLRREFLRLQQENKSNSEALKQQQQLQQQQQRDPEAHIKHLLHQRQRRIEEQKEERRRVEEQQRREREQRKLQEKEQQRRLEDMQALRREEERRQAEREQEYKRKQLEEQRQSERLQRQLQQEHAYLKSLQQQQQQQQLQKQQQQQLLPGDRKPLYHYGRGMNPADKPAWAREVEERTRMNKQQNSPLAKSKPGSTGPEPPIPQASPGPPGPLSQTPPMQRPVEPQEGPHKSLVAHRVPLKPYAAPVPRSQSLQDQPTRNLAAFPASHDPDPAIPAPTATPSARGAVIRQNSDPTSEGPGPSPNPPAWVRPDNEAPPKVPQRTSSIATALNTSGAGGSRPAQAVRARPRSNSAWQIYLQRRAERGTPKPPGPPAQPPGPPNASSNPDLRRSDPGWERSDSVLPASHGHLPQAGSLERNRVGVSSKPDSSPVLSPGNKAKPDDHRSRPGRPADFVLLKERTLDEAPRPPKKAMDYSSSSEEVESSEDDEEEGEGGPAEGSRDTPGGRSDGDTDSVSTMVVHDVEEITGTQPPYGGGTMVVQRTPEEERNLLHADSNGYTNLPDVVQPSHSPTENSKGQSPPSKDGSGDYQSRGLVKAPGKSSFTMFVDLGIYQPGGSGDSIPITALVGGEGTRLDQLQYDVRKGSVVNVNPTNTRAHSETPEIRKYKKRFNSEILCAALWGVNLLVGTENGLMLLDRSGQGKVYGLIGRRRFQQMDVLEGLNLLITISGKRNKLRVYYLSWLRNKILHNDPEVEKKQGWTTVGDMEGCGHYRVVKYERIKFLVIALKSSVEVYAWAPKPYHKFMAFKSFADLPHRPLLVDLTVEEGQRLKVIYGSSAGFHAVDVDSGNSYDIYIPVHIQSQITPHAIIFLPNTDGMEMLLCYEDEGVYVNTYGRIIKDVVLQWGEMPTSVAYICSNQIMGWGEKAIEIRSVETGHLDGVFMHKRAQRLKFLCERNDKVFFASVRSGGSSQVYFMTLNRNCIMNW
Chain of STK10/LOK (O94804 whole entry): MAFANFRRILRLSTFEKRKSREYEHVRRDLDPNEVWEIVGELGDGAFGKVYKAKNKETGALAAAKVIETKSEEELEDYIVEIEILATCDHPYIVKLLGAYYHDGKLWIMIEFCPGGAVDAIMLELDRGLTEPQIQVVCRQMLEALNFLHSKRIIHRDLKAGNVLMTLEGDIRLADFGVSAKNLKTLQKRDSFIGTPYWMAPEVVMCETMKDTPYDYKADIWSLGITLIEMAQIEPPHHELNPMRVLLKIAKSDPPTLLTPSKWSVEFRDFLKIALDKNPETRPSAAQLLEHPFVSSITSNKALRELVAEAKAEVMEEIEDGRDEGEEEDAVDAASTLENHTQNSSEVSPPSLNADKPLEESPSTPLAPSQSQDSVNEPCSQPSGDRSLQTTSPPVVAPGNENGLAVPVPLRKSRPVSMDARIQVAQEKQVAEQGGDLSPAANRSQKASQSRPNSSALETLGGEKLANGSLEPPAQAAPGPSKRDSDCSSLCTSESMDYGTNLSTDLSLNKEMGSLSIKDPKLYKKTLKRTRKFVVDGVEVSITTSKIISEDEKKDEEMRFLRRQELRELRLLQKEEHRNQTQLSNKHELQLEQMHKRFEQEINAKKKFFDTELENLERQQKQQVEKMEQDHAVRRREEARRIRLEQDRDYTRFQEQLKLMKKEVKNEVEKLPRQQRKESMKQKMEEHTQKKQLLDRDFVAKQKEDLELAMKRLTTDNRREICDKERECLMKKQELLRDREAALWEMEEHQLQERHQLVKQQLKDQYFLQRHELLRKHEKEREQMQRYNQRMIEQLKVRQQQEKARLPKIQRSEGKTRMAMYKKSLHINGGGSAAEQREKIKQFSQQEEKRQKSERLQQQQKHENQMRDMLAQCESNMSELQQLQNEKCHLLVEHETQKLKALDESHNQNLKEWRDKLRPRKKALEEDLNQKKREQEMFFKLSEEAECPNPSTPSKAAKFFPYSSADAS
Chain of CSNK1E (P49674 whole entry): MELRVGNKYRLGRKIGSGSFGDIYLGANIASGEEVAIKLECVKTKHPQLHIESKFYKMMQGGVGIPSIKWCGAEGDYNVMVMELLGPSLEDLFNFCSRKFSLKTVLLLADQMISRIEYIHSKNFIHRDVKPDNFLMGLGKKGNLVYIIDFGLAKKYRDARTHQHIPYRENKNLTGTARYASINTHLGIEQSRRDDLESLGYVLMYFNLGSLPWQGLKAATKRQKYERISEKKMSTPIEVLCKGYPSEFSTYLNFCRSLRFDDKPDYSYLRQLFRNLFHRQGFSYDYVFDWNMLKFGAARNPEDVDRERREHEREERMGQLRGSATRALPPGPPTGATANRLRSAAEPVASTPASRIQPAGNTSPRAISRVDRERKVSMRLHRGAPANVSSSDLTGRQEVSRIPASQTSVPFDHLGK
Chain of MAPK9/JNK2 (P45984 whole entry): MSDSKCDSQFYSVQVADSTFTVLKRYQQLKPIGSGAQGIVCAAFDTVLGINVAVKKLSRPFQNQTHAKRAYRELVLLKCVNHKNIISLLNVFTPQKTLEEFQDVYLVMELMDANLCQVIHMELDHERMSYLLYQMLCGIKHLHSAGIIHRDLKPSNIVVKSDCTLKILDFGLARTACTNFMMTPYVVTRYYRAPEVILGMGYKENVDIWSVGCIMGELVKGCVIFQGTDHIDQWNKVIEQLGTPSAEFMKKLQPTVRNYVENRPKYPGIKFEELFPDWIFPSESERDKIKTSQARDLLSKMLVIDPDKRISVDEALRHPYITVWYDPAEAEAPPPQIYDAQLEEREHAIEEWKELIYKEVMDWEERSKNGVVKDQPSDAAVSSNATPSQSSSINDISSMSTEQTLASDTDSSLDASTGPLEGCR

SMILES	KINOMEscan binding PRKD2 (PRKD2) [%]	KINOMEscan binding TGFBR1 (TGFBR1) [%]	KINOMEscan binding CDC42BPB/MRCKB (CDC42BPB/MRCKB) [%]	KINOMEscan binding TGFBR2 (TGFBR2) [%]	KINOMEscan binding CSNK1E (CSNK1E) [%]	KINOMEscan binding MAPK10/JNK3 (MAPK10/JNK3) [%]	KINOMEscan binding MAPK9/JNK2 (MAPK9/JNK2) [%]	KINOMEscan binding STK10/LOK (STK10/LOK) [%]	KINOMEscan binding MINK1/MINK (MINK1/MINK) [%]	KINOMEscan binding MTOR (MTOR [1]) [%]	AK (SH-SY5Y cells [2])	Nuclear Count (SH-SY5Y cells [3])	also measured
Cc1ccc(-c2nc(Nc3ccncc3)c3ccccc3n2)s1 [GSK189015]	14	6	21	21	22	14	19	1	2	10	70.77	75.74	
COc1ccc2nc(-c3cccc(C)n3)nc(Nc3ccncc3)c2c1 [GSK204919]	98.8		94.1	10	64	36	60	0	30	43	106.43	98.76	
Cc1cccc(-c2cc(Nc3ccncc3)c3ccccc3n2)n1 [GSK223675]	96		0	0	50					7	117.83	85.07	
Cc1cccc(-c2nc(C)cc(Nc3ccncc3)n2)n1 [GSK257997]	80	100	81	4	42	32	43	0	6	13	66.29	128.02	TGFBR1 binding (ALK5/TGFBR1): 0.025 µM
Cc1cccc(-c2nc(Nc3ccncc3)c3ccccc3n2)n1 [GW855857]	99		63	95.7	77					50	89.05	124.29	
Cc1cccc(-c2nc(Nc3ccc4nn[nH]c4c3)c3ccccc3n2)n1 [GW867587]	98.1	32	2	0	0	0	0	0	0	5	54.27	123.89	TGFBR1 binding (ALK5/TGFBR1): 0.59 µM
Cc1cccc(-c2nc(Nc3ccc4ncsc4c3)c3ccccc3n2)n1 [GW867588]	99.8	55	33	0	6	0	8	27	0	0	60.47	62.46	
Cc1csc(-c2nc(Nc3ccncc3)c3ccccc3n2)n1 [GW869640]	78		44	88	41					74	59.35	81.77	
Cc1cccc(-c2nc(Nc3ccncc3)c3sccc3n2)n1 [GW869641]	99.6		98.5	95.6	94.9					75	80.75	70.17	
Cc1cc(Nc2nc(-c3cccc(C)n3)nc3ccccc23)ccn1 [GW872411]	99.9	83	0	0	31	0	14	0	1	73	69.93	94.17	
Clc1cccc(-c2nc(Nc3ccncc3)c3ccccc3n2)c1 [GW873004]	45		42	17	23					36	129.21	66.61	TGFBR1 binding (ALK5/TGFBR1): 0.65 µM
Cc1cccc(-c2nc(Nc3cccc(C(N)=O)c3)c3ccccc3n2)n1 [GW876019]	66		32	15	15					35	199.56	75.33	
Cc1cccc(-c2nc(Nc3ccc4c(cnn4C)c3)c3ccccc3n2)n1 [GW876731]	99.6		34	0	37					0	73.05	107.18	
Cc1cccc(-c2nc(Nc3ccc4ncsc4c3)c3ccccc3n2)n1 [NK140]													EC50 (TFEB or TFE3): 650 nM; AK signal (in words) (SH-SY5Y cells [2]; SH-SY5Y, 24 h treatment): reduced; Cellular toxicity (AK release and nuclear count, in words) (SH-SY5Y cells [2]; SH-SY5Y, 24 h treatment): no increases in DQ Red BSA intensity or cellular toxicity; AK release (in words) (SH-SY5Y cells [2]; SH-SY5Y, 48 h treatment): without increases in AK; Nuclear count (in words) (SH-SY5Y cells [3]; SH-SY5Y, 48 h treatment): small reduction in nuclear count from 0.75 µM
Cc1cccc(-c2nc(Nc3ccc4nn(C)cc4c3)c3ccccc3n2)n1 [NK167]													KINOMEscan MTOR (MTOR [4]): 0; EC50 (TFEB or TFE3): 1000 nM; KINOMEscan PKNB(M.tuberculosis) (PKNB(M.tuberculosis)): 12
Cc1cccc(-c2nc(Nc3ccncc3)c3ccccc3n2)n1 [NK215]													KINOMEscan PRKD2 (PRKD2; PRKD2, Published KINOMEscan, ref original PKIS2 published data): 99; KINOMEscan CDC42BPB/MRCKB (CDC42BPB/MRCKB): 63; KINOMEscan TGFBR2 (TGFBR2; TGFBR2, Published KINOMEscan, ref original PKIS2 published data): 95.7; KINOMEscan CSNK1E (CSNK1E; CSNK1E, Published KINOMEscan, ref original PKIS2 published data): 77; KINOMEscan MTOR (MTOR [1]; MTOR, Published KINOMEscan, ref original PKIS2 published data): 50
